Measured values from patent US6737383B1, “Herbicidal oxadiazolidines” (priority 1999, dated 2004).

Columns and labels:
[1] = tested on: wild oat; assay: Test B pre/postemergence wild oat; type: in vivo, Avena fatua
How it was run: (§1)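 Test chemicals in a non-phytotoxic solvent mixture with surfactant were sprayed preemergence onto planted seeds and postemergence onto plants 2 to 18 cm tall (1- to 4-leaf stage). After twelve to sixteen days in a greenhouse, injury was visually rated against untreated controls from 0 (no effect) to 10 (complete control).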

[2] = tested on: sugar beet; assay: Test B pre/postemergence sugar beet; type: in vivo, Beta vulgaris
How it was run: as §1

[3] = tested on: pigweed; assay: Test B pre/postemergence pigweed; type: in vivo, Amaranthus retroflexus
How it was run: as §1

[4] = tested on: corn; assay: Test B pre/postemergence corn; type: in vivo, Zea mays
How it was run: as §1

[5] = tested on: velvetleaf; assay: Test B pre/postemergence velvetleaf; type: in vivo, Abutilon theophrasti
How it was run: as §1

[6] = tested on: smallflower flatsedge; assay: Test B flood test smallflower flatsedge; type: in vivo, Cyperus difformis
How it was run: (§2)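 Flood test on plants grown to the 2-leaf stage; treated plants kept in greenhouse twelve to sixteen days, then visually rated against controls on a 0 (no effect) to 10 (complete control) scale.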

[7] = tested on: morningglory; assay: Test B pre/postemergence morningglory; type: in vivo, Ipomoea hederacea
How it was run: as §1

[8] = tested on: bedstraw; assay: Test B pre/postemergence bedstraw; type: in vivo, Galium aparine
How it was run: as §1

[9] = tested on: surinam grass; assay: Test B pre/postemergence surinam grass; type: in vivo, Brachiaria decumbens
How it was run: as §1

[10] = tested on: purple nutsedge; assay: Test B pre/postemergence purple nutsedge; type: in vivo, Cyperus rotundus
How it was run: as §1

[11] = tested on: bamyardgrass; assay: Test B flood test barnyardgrass; type: in vivo, Echinochloa crus-galli
How it was run: as §2

[12] = tested on: rice; assay: Test B flood test rice; type: in vivo, Oryza sativa
How it was run: as §2

[13] = tested on: blackgrass; assay: Test B pre/postemergence blackgrass; type: in vivo, Alopecurus myosuroides
How it was run: as §1

[14] = tested on: rape; assay: Test B pre/postemergence rape; type: in vivo, Brassica napus
How it was run: as §1

[15] = tested on: cocklebur; assay: Test B pre/postemergence cocklebur; type: in vivo, Xanthium strumarium
How it was run: as §1

[16] = tested on: soybean; assay: Test B pre/postemergence soybean; type: in vivo, Glycine max
How it was run: as §1

[17] = Postemergence, Rate 125 g/ha, scale 0 to 10, 0 is no effect, 10 is complete control
[18] = Preemergence, Rate 62 g/ha, scale of 0 to 10 where 0 is no effect and 10 is complete control
[19] = Preemergence, Rate 250 g/ha, scale of 0 to 10 where 0 is no effect and 10 is complete control
[20] = Preemergence, Rate 500 g/ha, scale of 0 to 10 where 0 is no effect and 10 is complete control
[21] = Rate 62 g/ha, Postemergence, scale 0 to 10 (0 no effect, 10 complete control)
[22] = Rate 500 g/ha, Postemergence, scale 0 to 10, 0 no effect, 10 complete control
[23] = Rate 62 g/ha, headed Pre-emergence (flood test species), scale 0 to 10 (0 no effect, 10 complete control)
[24] = Rate 125 g/ha, Pre-emergence, flood test species, scale 0 to 10 where 0 is no effect and 10 is complete control
[25] = Rate 250 g/ha, Pre-emergence, flood-test species, scale 0 to 10, 0 is no effect, 10 is complete control
[26] = Rate 500 g/ha, Pre-emergence, flood test species, scale 0 to 10 (0 no effect, 10 complete control)
[27] = Rate 250 g/ha, Postemergence, scale of 0 to 10 where 0 is no effect and 10 is complete control

Cc1c(-n2c(=O)on(C(=O)N(c3ccc(F)cc3)C(C)C)c2=O)ccc2ccccc12 [Compound 338]
Plant response rating, Wild oats [1, 17]: 0 | Wild oats plant response rating [1, 18]: 0 | Wild oats plant response rating (0 to 10 scale) ([1]; Preemergence, Rate 125 g/ha): 0 | Wild oats plant response rating [1, 19]: 0 | Wild oats plant response rating [1, 20]: 0 | Wild oats plant response rating [1, 21]: 0 | Plant response rating, Wild oats [1, 22]: 0 | Plant response rating, Sugarbeets [2, 17]: 0 | Sugarbeets plant response rating [2, 18]: 0 | Sugarbeets plant response rating (0 to 10 scale) ([2]; Preemergence, Rate 125 g/ha): 0 | Sugarbeets plant response rating [2, 19]: 0 | Sugarbeets plant response rating [2, 20]: 0 | Sugarbeets plant response rating [2, 21]: 0 | Plant response rating, Sugarbeets [2, 22]: 0 | Plant response rating, Redroot pigweed [3, 17]: 0 | Redroot pigweed plant response rating [3, 18]: 0 | Redroot pigweed plant response rating (0 to 10 scale) ([3]; Preemergence, Rate 125 g/ha): 0 | Redroot pigweed plant response rating [3, 19]: 0 | Redroot pigweed plant response rating [3, 20]: 0 | Redroot pigweed plant response rating [3, 21]: 0 | Plant response rating, Redroot pigweed [3, 22]: 0 | Plant response rating, Corn [4, 17]: 0 | Corn plant response rating [4, 18]: 0 | Corn plant response rating (0 to 10 scale) ([4]; Preemergence, Rate 125 g/ha): 0 | Corn plant response rating [4, 19]: 0 | Corn plant response rating [4, 20]: 0 | Corn plant response rating [4, 21]: 0 | Plant response rating, Corn [4, 22]: 0 | Plant response rating, Velvetleaf [5, 17]: 0 | Velvetleaf plant response rating [5, 18]: 0 | Velvetleaf plant response rating (0 to 10 scale) ([5]; Preemergence, Rate 125 g/ha): 0 | Velvetleaf plant response rating [5, 19]: 0 | Velvetleaf plant response rating [5, 20]: 0 | Velvetleaf plant response rating [5, 21]: 0 | Plant response rating, Velvetleaf [5, 22]: 0 | S. Flatsedge plant response rating [6, 23]: 0 | S. Flatsedge plant response rating [6, 24]: 0 | S. Flatsedge plant response rating [6, 25]: 0 | S. Flatsedge plant response rating [6, 26]: 0 | Plant response rating, Morningglory [7, 17]: 0 | Morningglory plant response rating [7, 18]: 0 | Morningglory plant response rating (0 to 10 scale) ([7]; Preemergence, Rate 125 g/ha): 0 | Morningglory plant response rating [7, 19]: 0 | Morningglory plant response rating [7, 20]: 0 | Morningglory plant response rating [7, 21]: 0 | Plant response rating, Morningglory [7, 22]: 2 | Plant response rating, Bedstraw [8, 17]: 2 | Bedstraw plant response rating [8, 18]: 0 | Bedstraw plant response rating (0 to 10 scale) ([8]; Preemergence, Rate 125 g/ha): 0 | Bedstraw plant response rating [8, 19]: 0 | Bedstraw plant response rating [8, 20]: 0 | Bedstraw plant response rating [8, 21]: 0 | Plant response rating, Bedstraw [8, 27]: 2 | Plant response rating, Bedstraw [8, 22]: 5 | Plant response rating, B. signalgrass [9, 17]: 0 | B. signalgrass plant response rating [9, 18]: 0 | B. signalgrass plant response rating (0 to 10 scale, 0 is no effect, 10 is complete control) ([9]; Preemergence, Rate 125 g/ha): 0 | B. signalgrass plant response rating [9, 19]: 0 | B. signalgrass plant response rating [9, 20]: 0 | B. signalgrass plant response rating [9, 21]: 0 | Plant response rating, B. signalgrass [9, 27]: 0 | Plant response rating, B. signalgrass [9, 22]: 0 | Plant response rating, Nutsedge [10, 17]: 0 | Nutsedge plant response rating [10, 18]: 0 | Nutsedge plant response rating (0 to 10 scale) ([10]; Preemergence, Rate 125 g/ha): 0 | Nutsedge plant response rating [10, 19]: 0 | Nutsedge plant response rating [10, 20]: 0 | Nutsedge plant response rating [10, 21]: 0 | Plant response rating, Nutsedge [10, 22]: 0 | Barnyardgrass plant response rating [11, 23]: 0 | Barnyardgrass plant response rating [11, 24]: 0 | Barnyardgrass plant response rating [11, 25]: 0 | Barnyardgrass plant response rating [11, 26]: 9 | Rice plant response rating [12, 23]: 0 | Rice plant response rating [12, 24]: 0 | Rice plant response rating [12, 25]: 0 | Rice plant response rating [12, 26]: 0 | Plant response rating, Blackgrass [13, 17]: 0 | Blackgrass plant response rating [13, 18]: 0 | Blackgrass plant response rating (0 to 10 scale) ([13]; Preemergence, Rate 125 g/ha): 0 | Blackgrass plant response rating [13, 19]: 0 | Blackgrass plant response rating [13, 20]: 0 | Blackgrass plant response rating [13, 21]: 0 | Plant response rating, Blackgrass [13, 27]: 0 | Plant response rating, Blackgrass [13, 22]: 0 | Plant response rating, Rape [14, 17]: 0 | Rape plant response rating [14, 18]: 0 | Rape plant response rating (0 to 10 scale) ([14]; Preemergence, Rate 125 g/ha): 0 | Rape plant response rating [14, 19]: 0 | Rape plant response rating [14, 20]: 0 | Rape plant response rating [14, 21]: 0 | Plant response rating, Rape [14, 22]: 0 | Plant response rating, Cocklebur [15, 17]: 0 | Cocklebur plant response rating [15, 18]: 0 | Cocklebur plant response rating (0 to 10 scale) ([15]; Preemergence, Rate 125 g/ha): 0 | Cocklebur plant response rating [15, 19]: 0 | Cocklebur plant response rating [15, 20]: 0 | Cocklebur plant response rating [15, 21]: 0 | Plant response rating, Cocklebur [15, 22]: 0 | Plant response rating, Soybean [16, 17]: 1 | Soybean plant response rating [16, 18]: 0 | Soybean plant response rating (0 to 10 scale) ([16]; Preemergence, Rate 125 g/ha): 0 | Soybean plant response rating [16, 19]: 0 | Soybean plant response rating [16, 20]: 0 | Soybean plant response rating [16, 21]: 1 | Plant response rating, Soybean [16, 22]: 2
